Data taken from patent EP0234708A1, “Tetrahydrocarbazole 1-alkanoic acids” (MERCK FROSST CANADA INC., priority 1986, dated 1987).

Experiments:
Human Platelets = molecular target: T1, Human Platelets (Homo sapiens, UniProt P21731); assay: Inhibition of induced threshold aggregation of human platelets (aggregating agent U44069, platelet rich plasma); type: cell-based; conditions: for IC50: human platelet rich plasma, threshold aggregation induced by U44069, read-out: Inhibition of platelet aggregation (IC50 in µg/ml) (converted)
T1 sequence (P21731 1-343): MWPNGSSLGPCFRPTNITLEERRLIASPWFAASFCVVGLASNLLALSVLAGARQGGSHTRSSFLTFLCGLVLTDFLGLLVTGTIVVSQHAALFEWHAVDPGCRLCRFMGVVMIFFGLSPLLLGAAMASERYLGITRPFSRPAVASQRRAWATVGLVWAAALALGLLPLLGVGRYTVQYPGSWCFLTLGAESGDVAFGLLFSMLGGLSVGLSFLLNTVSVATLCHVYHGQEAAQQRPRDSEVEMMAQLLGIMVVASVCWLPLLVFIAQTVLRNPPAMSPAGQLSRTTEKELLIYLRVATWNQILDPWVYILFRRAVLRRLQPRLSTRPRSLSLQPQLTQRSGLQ
Procedure: Inhibition of Induced Threshold Aggregation of Human
Human platelet rich plasma (PRP) is prepared from venous blood of male volunteers who have taken no medication for ten days prior to test. […] The supernatant (PRP) is transferred into plastic tubes. Platelet poor plasma (PPP) is obtained by centrifuging the residual blood cells at 4000 g for ten minutes. PRP is left to stand at least one half hour prior to testing.
Platelet Aggregation is measured using a Payton Aggregometer and Recorder. […] Drug vehicle (control), or a drug concentration is then added in a volume of 0.5 microliter. After one minute, the aggregating agent (U44069, 9,11-dideoxy-9α,11α-epoxymethano PGF 2a ) is added to the cuvette in a volume of 25 microliters. Recording is continued until the maximal response is obtained.
The threshold (approximately 20 - 30% of maximum) aggregation concentration of the agonist to be used is first determined in the presence of the drug vehicle (control). […] All drugs are dissolved in dimethylsulfoxide.
The height of the aggregation response (measured in divisions of the recorder paper, 1 division × 2.5 mm) in the presence of the drug is recorded, and calculated as percent inhibition of the mean height of the control threshold responses.

[1] = tested on: Guinea Pig Tracheal Chain; assay: Estimation of pA2 values in guinea pig tracheal chain (contractile agonist U-44069); set-up: species or system guinea pigs; conditions: for Kb: Cavia porcellus; for Kb / pA2: guinea pig tracheal chain, antagonism of U-44069 contraction, logarithmic scale; for prostanoid antagonist activity (statement in words): Table 4 data (platelet aggregation and pA2)
Source text: Estimation of pA2 Values in Guinea Pig Tracheal Chain
Male albino Hartley strain guinea pigs (300-350 gm) were sacrificed by a blow to the head and exsanguinated. The trachea was removed, freed of extraneous tissue and sectioned into rings of 1-2 mm thickness. Five rings were tied together in series, ensuring that the tracheal muscle lay in the same vertical plane, and the cartilage of each ring then separated at a point directly opposite the muscle. The chains were suspended under 1 gm resting tension in modified Krebs solution (NaCl, 6.87; NaHCO3, 2.1; dextrose, 2.1; KC1, 0.32; CaCl2, 0.28; MgSO4, 7H 0, 0.11; KH2PO4, 0.16; gm/L: equilibrated with 5% C02 in O2 for 1 hour) containing indomethacin (1.4 x 10^-5M) to suppress endogenous protaglandin synthesis, Organ bath temperature was maintained at 37°C and 5% C02 in 02 diffused continously. Isometric tension changes were recorded from a Gould-Statham (UTC 2) force displacement transducer connected to a Beckman Type R Dynograph. For assay purposes initial maximal contractions were elicited with a high concentration of the contractile agonist [U-44069, 9.11-dideoxy-9α,11α-epoxymethano PGF2α] and the tissue subsequently washed at intervals until tension returned to baseline. Agonist dose response curves were obtained using a cumulative-dose schedule (4-8 doses) and the preparations then washed at regular intervals until baseline tension was recorded. After an appropriate interval (1-1.5 hrs) agonist dose response curves were repeated in the presence of antagonist drug concentrations. […] EC50 values were obtained by regression analysis and used to calculate 'apparent' and Schild Plot pA2 values by the method of Tallarida and Murray 1981.

IC50 (Human Platelets) | SMILES | Kb [1] | prostanoid antagonist activity (statement in words) [1] | pA2 [1] | times less potent as an inhibitor of platelet aggregation (Human Platelets; compared with compound 2) | pA2 is a factor less than that of compound 2 ([1]; compared with compound 2, printed as antilog of 1.6)
> 81100 nM | COc1ccc2c(c1)c1c(n2Cc2ccc(Cl)cc2)CC(C(=O)O)CC1 (stereo not drawn) [B] | > 1000 nM | no significant activity | – | – | –
457 nM | O=C(O)CC1CCCc2c1n(Cc1ccc(Cl)cc1)c1cccc(F)c21 (stereo not drawn) [Compound 16, 9-p-chlorobenzyl-5-fluoro-1,2,3,4-tetrahydrocarbazol-1-yl-acetic acid] | 1.26 nM | – | – | – | –
> 79000 nM | COc1ccc2c(c1)c1cccc(CC(=O)O)c1n2Cc1ccc(Cl)cc1 [C] | 263 nM | does not possess any significant activity | – | – | –
80.7 nM | O=C(O)CC1CCCc2c1n(Cc1ccc(Cl)cc1)c1ccc(F)cc21 (stereo not drawn) [Compound 1, 9-p-chlorobenzyl-6-fluoro-1,2,3,4-tetrahydrocarbazol-1-yl-acetic acid] | – | – | 8.6 | – | –
141 nM | O=C(O)CC1CCCc2c1n(Cc1ccc(Cl)cc1)c1ccccc21 (stereo not drawn) [Compound 9, 9-p-chlorobenzyl-1,2,3,4-tetrahydrocarbazol-1-yl-acetic acid] | 1.26 nM | – | – | – | –
11400 nM | COc1ccc2c(c1)c1c(n2Cc2ccc(Cl)cc2)C(C(=O)O)CCC1 (stereo not drawn) [E] | 219 nM | severe loss of activity | – | – | –
208 nM | O=C(O)CC1CCCc2c1n(Cc1ccc(Cl)cc1)c1ccc(Br)cc21 (stereo not drawn) [Compound 12, 6-bromo-9-p-chlorobenzyl-l,2,3,4-tetrahydrocarbazol-l-yl-acetic acid] | 12.6 nM | – | – | – | –
134 nM | O=C(O)CC1CCCc2c1n(Cc1ccc(Cl)cc1)c1ccc(F)cc21 (single isomer, unassigned; (-)) [Compound 3, (-)9-p-chlorobenzyl-6-fluoro-1,2,3,4-tetrahydro-carbazol-1-yl-acetic acid] | – | – | 8.0 | – | –
35200 nM | O=C(O)CC1CCCc2c1n(CCc1ccc(Cl)cc1)c1ccc(F)cc21 (stereo not drawn) [Compound H, 9-[1-(2-p-chlorophenyl)ethyl]-6-fluoro-1,2,3,4-tetra-hydrocarbazol-1-yl-acetic acid] | 158 nM | serious loss of activity | – | – | –
782 nM | COc1ccc2c(c1)c1c(n2Cc2ccc(Cl)cc2)C(CC(=O)O)CCC1 (stereo not drawn) [Compound 2, 9-p-chlorobenzyl-6-methoxy-1,2,3,4-tetrahydrocarbazol-1-yl-acetic acid] | 3.98 nM | – | – | – | –
166 nM | O=C(O)CC1CCCc2c1n(Cc1ccc(Cl)cc1)c1c(Cl)cc(Cl)cc21 (stereo not drawn) [Compound 19, 9-p-chlorobenzyl-6,8-dichloro-1,2,3,4-tetrahydro-carbazol-1-yl-acetic acid] | 63.1 nM | – | – | – | –
258 nM | O=C(O)CC1CCCc2c1n(Cc1ccc(Cl)cc1)c1ccc(Cl)cc21 (stereo not drawn) [Compound 10, 9-p-chlcrobenzyl-6-chloro-1,2,3,4-tetrahydrocarbazol-1-yl-acetic acid] | 10 nM | – | – | – | –
803 nM | CC(C(=O)O)C1CCCc2c1n(Cc1ccc(Cl)cc1)c1ccc(F)cc21 (stereo not drawn) [Compound 20, 2-[9-p-chlorobenzyl-6-fluoro-1,2,3,4-tetrahydro-carbazol-1-yl-]propanoic acid] | 158 nM | – | – | – | –
– | COc1ccc2c(c1)c1c(n2Cc2ccc(Cl)cc2)CCCC1C(=O)O (stereo not drawn) [D] | > 1000 nM | severe loss of activity | – | – | –
408 nM | COc1ccc(Cn2c3c(c4cc(F)ccc42)CCCC3CC(=O)O)cc1 (stereo not drawn) [Compound 6, 9-p-methoxybenzyl-6-fluoro-1,2,3,4-tetrahydrocarbazol-1-yl-acetic acid] | 2 nM | – | – | – | –
222 nM | O=C(O)CC1CCCc2c1n(Cc1ccc(Cl)c(Cl)c1)c1ccc(F)cc21 (stereo not drawn) [Compound 7, 9-(3,4-dichloro)benzyl-6-fluoro-1,2,3,4-tetrahydro-carbazol-1-yl-acetic acid] | 5.01 nM | – | – | – | –
13800 nM | O=C(O)CC1CCCc2c1[nH]c1ccc(F)cc21 (stereo not drawn) [Compound F, 6-fluoro-1,2,3,4-tetrahydrocarbazol-1-yl-acetic acid] | > 1000 nM | severe loss of activity | – | – | –
215 nM | O=C(O)CC1CCCc2c1n(Cc1ccc(Cl)cc1)c1c(F)cccc21 (stereo not drawn) [Compound 14, 9-p-chlorobenzyl-8 fluoro-1,2,3,4-tetrahydrocarbazol-1-yl-acetic acid] | 0.398 nM | – | – | – | –
256 nM | CC(c1ccccc1)n1c2c(c3cc(F)ccc31)CCCC2CC(=O)O (stereo not drawn) [Compound 8, 9-[1-(1-phenyl)ethyl]-6-fluoro-1,2,3,4-tetrahydro-carbazol-1-yl-acetic acid] | > 1000 nM | – | – | – | –
47000 nM | CC(C)n1c2c(c3cc(F)ccc31)CCCC2CC(=O)O (stereo not drawn) [G, 6-fluoro-9-isopropyl-1,2,3,4-tetrahydrocarbazol-1-yl-acetic acid] | > 1000 nM | almost completely lost activity | – | – | –
217 nM | Cc1ccc2c(c1)c1c(n2Cc2ccc(Cl)cc2)C(CC(=O)O)CCC1 (stereo not drawn) [Compound 13, 9-p-chlorobenzyl-6-methyl-1,2,3,4-tetrahydrocarbazol-1-yl-acetic acid] | 25.1 nM | – | – | – | –
272 nM | Cc1cccc2c3c(n(Cc4ccc(Cl)cc4)c12)C(CC(=O)O)CCC3 (stereo not drawn) [Compound 11, 9-p-chlorobenzyl-8-methyl-l,2,3,4-tetrahydrocarbazol-1-yl-acetic acid] | 0.316 nM | – | – | – | –

SMILES | IC50 (Human Platelets) | Kb [1] | prostanoid antagonist activity (statement in words) [1] | pA2 [1] | times less potent as an inhibitor of platelet aggregation (Human Platelets; compared with compound 2) | pA2 is a factor less than that of compound 2 ([1]; compared with compound 2, printed as antilog of 1.6)
COc1ccc2c(c1)c1c(n2Cc2ccc(Cl)cc2)CC(CC(=O)O)CC1 (stereo not drawn) [Compound A, reference compound] | 9120 nM | 158 nM | – | – | ~12 | 14
